Experimental data: patent publication US20120088688A1, “IN VITRO ASSAY FOR IDENTIFICATION OF ALLERGENIC PROTEINS” (BIOVATOR TECHNOLOGIES AB, priority 2005, published 2012)
Counter-ions that a name gives are not always drawn.

Test system: Mono Mac 6 cells
Experiment: Micro array gene expression profiling (HG_U95Av2 chip) of Mono Mac 6 cells following allergen treatment
Type: cell-based, human
Settings: for Number of up regulated genes: Mono Mac 6 cells
Procedure: The cell line Mono Mac 6 (AstraZeneca Cell Storage and Retrieval, Alderley Park, UK) was cultivated in RPMI 1640 medium with 10 mM HEPES buffer (Gibco, UK), 2 mM L-glutamine, 9 μg/mL human insulin, 1.0 mM sodium pyruvate, 10% fetal bovine serum, 5.6 μl/mL glucose, 100 U/mL penicillin and 100 μg/ml streptomycin. Fresh medium for cultivation was added or changed frequently (every 2:nd or 3:rd day), maintaining a cell density of viable cells/mL between 0.5×10^6 and 1.0×10^6. The cell line was in suspension/loosely adherent and sub cultures were prepared when needed by scraping. The plates were cultivated in an inclined position at 37° C. and 5% CO2 in a Galaxy R (Lab Rum Klimat Ab, Sweden) incubator
Cells were treated with four different allergens, according to table 2, in duplicate cultures. The test substances were all diluted in double distilled water. The duplicate cultures were treated at different exposure days. All treatments were 6 hours and control cells were left unexposed.
20 individual cultures with 500 000 cells per culture were treated identical for each substance. After 6 h exposure identical treated cells were harvest and pooled into a 50 ml Falcontube, pelleted at 540 g for 5 minutes in 7° C. […] The supernatant was removed and the cells were freeze-dried with liquid nitrogen and thereafter put into −152° C. freezer until further preparation.
Experimental procedures were performed according to Gene Chip®Expression Analysis Technical Manual (rev1, 2001) with minor modifications as described. Total RNA was prepared from frozen cells, according to Qiagen Rneasy Mini kit (Qiagen/WVR, Sweden). 30 μg of total RNA was used for cDNA synthesis and in vitro transcript labeling with biotin was performed according to Enzo BioArray RNA Transcription Labeling Kit (Enzo, U.S.A). cRNA quality was analyzed on a Agilent Bioanalyser 2001 (Agilent Technologies, U.S.A) and the concentration was measured on a Nano Droop (Saveen Werner, Sweden). 15 μg of fragmented cRNA was added to the hybridization-cocktail and hybridized to the HG_U95Av2 chip (Affymetrix, U.S.A) for 16 h at 45° C. The arrays were washed and stained with biotinylated anti streptavidin antibodies according to the EukGE_W2v4 protocol (Affymetrix, U.S.A) in the fluid station (Affymetrix, U.S.A).
Data obtained were analyzed using the MAS 5.0 model base. A detection call was calculated for all probe sets, representing if the transcript of a particular gene was present or absent, all absent genes were excluded from analysis.
To verify outliers and trends in data exploratory analysis was made with principle component analysis (PCA). Statistic analysis was made using student's t-test. It weights the variance in individual groups with the variance in all groups. Student's t-test was used to test for statistical significance compared with control. The p-value obtained describes the probability of statistically finding a false positive probe set. Fold change (fc) represents the quotient between the two compared chip.
The average signal value from all treated groups were compared with control signals.
All probe sets with signal value<50 in all groups were excluded from analysis. […] The remaining probe sets were ranked after fc.

CC1(C)S[C@@H]2[C@H](NC(=O)Cc3ccccc3)C(=O)N2[C@H]1C(=O)O [penicillin G, Benzylpenicillin sodium salt]
Number of up regulated genes (cut off fc >2): 4 | Number of up regulated genes (cut off fc >4): 1 | Number of up regulated genes (cut off fc >6): 0 | Number of up regulated genes (cut off fc >10): 0 | vs ctrl fc, GPR15 (gene GPR15): 2.2 | vs ctrl fc, IFITM3 (gene IFITM3): 3.3 | vs ctrl fc, XK (gene XK): 2.6 | vs ctrl fc, c 33.28 unnamed HERV-H protein mRNA (systematic name none, c 33.28 unnamed HERV-H protein mRNA): 9.1
